According to patent publication US12077503B2, “Substituted cyclic amides and their use as herbicides” (FMC CORPORATION, priority 2015, dated 2024):

Assays:
Type in all cases: in vivo
Kochia (Kochia scoparia) = assay: Test A preemergence; settings: Bassia scoparia, pre-emergence, 240 h
How it was run: (§1)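 Preemergence soil spray on seeded pots or post-emergence spray on 1–2 leaf plants, in loam–sand blend. Greenhouse ~10 d. Visual rating 0–100 against untreated plants.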

[1] = tested on: barnyardgrass (Echinochloa crus-galli); assay: Test A preemergence; settings: Echinochloa crus-galli, pre-emergence, 240 h
How it was run: as §1

[2] = tested on: giant foxtail (Setaria faberii); assay: Test A preemergence; settings: Setaria faberi, pre-emergence, 240 h
How it was run: as §1

[3] = tested on: pigweed (Amaranthus retroflexus); assay: Test A preemergence; settings: Amaranthus retroflexus, pre-emergence, 240 h
[4] = tested on: ragweed (common ragweed, Ambrosia elatior); assay: Test A preemergence; settings: Ambrosia artemisiifolia, pre-emergence, 240 h
How it was run: as §1

[5] = tested on: ryegrass, Italian (Italian ryegrass, Lolium multiflorum); assay: Test A preemergence; settings: Lolium multiflorum, pre-emergence, 240 h
How it was run: as §1

[6] = tested on: Galium (catchweed bedstraw, Galium aparine); assay: Test A postemergence; settings: Galium, post-emergence, 240 h, read-out: Plant response rating, Galium
How it was run: as §1

[7] = tested on: barnyardgrass (Echinochloa crus-galli); assay: Test A postemergence; settings: Echinochloa crus-galli, post-emergence, 240 h, read-out: Plant response rating, Barnyardgrass
How it was run: as §1

[8] = tested on: blackgrass (Alopecurus myosuroides); assay: Test A postemergence; settings: Alopecurus myosuroides, post-emergence, 240 h, read-out: Plant response rating, Blackgrass
How it was run: as §1

corn (Zea mays) = assay: Test A postemergence; settings: Zea mays, post-emergence, 240 h
How it was run: as §1

[9] = tested on: giant foxtail (Setaria faberii); assay: Test A postemergence; settings: Setaria faberi, post-emergence, 240 h, read-out: Plant response rating, Foxtail, Giant
How it was run: as §1

[10] = tested on: pigweed (Amaranthus retroflexus); assay: Test A postemergence; settings: Amaranthus retroflexus, post-emergence, 240 h, read-out: Plant response rating, Pigweed
How it was run: as §1

[11] = tested on: ragweed (common ragweed, Ambrosia elatior); assay: Test A postemergence; settings: Ambrosia artemisiifolia, post-emergence, 240 h, read-out: Plant response rating, Ragweed
How it was run: as §1

[12] = tested on: ryegrass, Italian (Italian ryegrass, Lolium multiflorum); assay: Test A postemergence; settings: Lolium multiflorum, post-emergence, 240 h, read-out: Plant response rating, Ryegrass, Italian
How it was run: as §1

[13] = tested on: wheat (Triticum aestivum); assay: Test A postemergence; settings: Triticum aestivum, post-emergence, 240 h, read-out: Plant response rating, Wheat
How it was run: as §1

[14] = 125 g ai/ha, Postemergence, visual injury after approximately 10 d, 0 to 100 scale where 0 is no effect and 100 is complete control
[15] = 500 g ai/ha, postemergence, visual injury, 0 to 100 scale (0 no effect, 100 complete control), approx. 10 d

## Cc1ccc([C@H]2CN(C)C(=O)[C@@H]2C(=O)Nc2cccc(F)c2C)cc1Cl [Compound 1014]
Kochia (Kochia scoparia); 125 g ai/ha, Preemergence, visual injury rating after approximately 10 d, read-out: Kochia plant response rating (0 to 100 scale, 0 is no effect, 100 is complete control)
  pest or weed control at 125 g/ha: 20%
Kochia (Kochia scoparia); 500 g ai/ha, preemergence, visual injury rating about 10 d after treatment, 0 to 100 scale (0 no effect, 100 complete control), read-out: Kochia plant response rating
  pest or weed control at 500 g/ha: 70%
[1]; 125 g ai/ha, Preemergence, visual injury rating after approximately 10 d, read-out: Barnyardgrass plant response rating (0 to 100 scale, 0 is no effect, 100 is complete control)
  pest or weed control at 125 g/ha: 90%
[1]; 500 g ai/ha, preemergence, visual injury rating about 10 d after treatment, 0 to 100 scale (0 no effect, 100 complete control), read-out: Barnyardgrass plant response rating
  pest or weed control at 500 g/ha: 90%
[2]; 125 g ai/ha, Preemergence, visual injury rating after approximately 10 d, read-out: Foxtail, Giant plant response rating (0 to 100 scale, 0 is no effect, 100 is complete control)
  pest or weed control at 125 g/ha: 90%
[2]; 500 g ai/ha, preemergence, visual injury rating about 10 d after treatment, 0 to 100 scale (0 no effect, 100 complete control), read-out: Foxtail, Giant plant response rating
  pest or weed control at 500 g/ha: 90%
[3]; 125 g ai/ha, Preemergence, visual injury rating after approximately 10 d, read-out: Pigweed plant response rating (0 to 100 scale, 0 is no effect, 100 is complete control)
  pest or weed control at 125 g/ha: 30%
[3]; 500 g ai/ha, preemergence, visual injury rating about 10 d after treatment, 0 to 100 scale (0 no effect, 100 complete control), read-out: Pigweed plant response rating
  pest or weed control at 500 g/ha: 30%
[4]; 125 g ai/ha, Preemergence, visual injury rating after approximately 10 d, read-out: Ragweed plant response rating (0 to 100 scale, 0 is no effect, 100 is complete control)
  pest or weed control at 125 g/ha: 0%
[4]; 500 g ai/ha, preemergence, visual injury rating about 10 d after treatment, 0 to 100 scale (0 no effect, 100 complete control), read-out: Ragweed plant response rating
  pest or weed control at 500 g/ha: 0%
[5]; 125 g ai/ha, Preemergence, visual injury rating after approximately 10 d, read-out: Ryegrass, Italian plant response rating (0 to 100 scale, 0 is no effect, 100 is complete control)
  pest or weed control at 125 g/ha: 0%
[5]; 500 g ai/ha, preemergence, visual injury rating about 10 d after treatment, 0 to 100 scale (0 no effect, 100 complete control), read-out: Ryegrass, Italian plant response rating
  pest or weed control at 500 g/ha: 70%
[6]; [14]
  pest or weed control at 125 g/ha: 20%
[6]; [15]
  pest or weed control at 500 g/ha: 60%
[7]; [14]
  pest or weed control at 125 g/ha: 90%
[7]; [15]
  pest or weed control at 500 g/ha: 90%
[8]; [14]
  pest or weed control at 125 g/ha: 0%
[8]; [15]
  pest or weed control at 500 g/ha: 50%
Corn (Zea mays); [14]
  Corn plant response rating (crop injury, 0 = no effect, 100 = complete kill) at 125 g/ha: 70%
Corn (Zea mays); [15]
  Corn plant response rating (crop injury, 0 = no effect, 100 = complete kill) at 500 g/ha: 90%
[9]; [14]
  pest or weed control at 125 g/ha: 90%
[9]; [15]
  pest or weed control at 500 g/ha: 90%
[10]; [14]
  pest or weed control at 125 g/ha: 30%
[10]; [15]
  pest or weed control at 500 g/ha: 30%
[11]; [14]
  pest or weed control at 125 g/ha: 0%
[11]; [15]
  pest or weed control at 500 g/ha: 30%
[12]; [14]
  pest or weed control at 125 g/ha: 30%
[12]; [15]
  pest or weed control at 500 g/ha: 60%
[13]; [14]
  plant injury at 125 g/ha: 30%
[13]; [15]
  plant injury at 500 g/ha: 80%
